The source made the active and inactive calls. The rule behind the calls is not given here.

Data set [1] has as its system EBC-1. Kind of data set: Antitumor activity against human EBC-1 cells xenografted BALB/c nude mouse assessed as reduction in tumor volume at 20 mg/kg, ip administered for 7 days. The arrangement: scale not given: the % may be the effect or the level left. Format: functional. As to conditions: time 7 day. (A xenograft is tissue or cells of one species grown in another, often human tumour cells in immunodeficient mice.)

Data set [2] deals with EBC-1. Kind of data set: Induction of apoptosis in human EBC-1 cells assessed as early apoptotic cells at 50 nM incubated for 24 hrs by Annexin V/FITC staining based flow cytometry analysis (reference value: 2.11 %). Format: functional. (In general: A flow cytometer gives signals particle by particle.)
Data set [3] in a line: Stability in human plasma assessed as half life. Format: ADME, cell-free.
The target in data set [4] is T1, Protein cereblon/Hepatocyte growth factor receptor (Homo sapiens, UniProt P08581+Q96SW2). The data set is described as follows: PROTAC activity at c-Met/CRBN in human EBC-1 cells assessed as induction of c-Met degradation at 15.6 nM incubated for 24 hrs by Western blotting analysis relative to control. The class given is cell-based. A general note: Immunoblotting shows a protein as a band on a membrane.

The test system of a further data set is A549. Kind of data set: Antiproliferative activity against human A549 cells assessed as cell viability incubated for 72 hrs by MTT assay. Format: functional, cell-based. The settings on record: A549, 72 h.
Data set [5] in a line: MRT (0 to t) in Sprague-Dawley rat at 5 mg/kg, ip measured upto 24 hrs by LC-MS/MS analysis. Format: ADME, organism-based. As to conditions: in vivo.
Data set [6] deals with T1, Protein cereblon/Hepatocyte growth factor receptor. The data set is described as follows: PROTAC activity at c-Met/CRBN in human EBC-1 cells assessed as reduction in HELLS level at 15.6 nM incubated for 24 hrs by proteomics analysis. Format: cell-based.
Data set [7] is described as follows: Toxicity in BALB/c nude mouse assessed as lung damage at 10 to 20 mg/kg, ip administered for 7 days by H and E staining based analysis. Format: organism-based. As to conditions: in vivo, 168 h, dose 10-20 mg/kg, time 7 day.
Data set [8] in a line: MRT (0 to infinity) in Sprague-Dawley rat at 5 mg/kg, ip measured upto 24 hrs by LC-MS/MS analysis. Format: ADME, organism-based. As to conditions: in vivo.
Data set [9] deals with T1, Protein cereblon/Hepatocyte growth factor receptor. Kind of data set: PROTAC activity at c-Met/CRBN in human EBC-1 cells assessed as induction of c-Met degradation at 15.6 nM incubated for 72 hrs by Western blotting analysis relative to control. The class given is cell-based.

T1 sequence (P08581 25-1390 limits assumed): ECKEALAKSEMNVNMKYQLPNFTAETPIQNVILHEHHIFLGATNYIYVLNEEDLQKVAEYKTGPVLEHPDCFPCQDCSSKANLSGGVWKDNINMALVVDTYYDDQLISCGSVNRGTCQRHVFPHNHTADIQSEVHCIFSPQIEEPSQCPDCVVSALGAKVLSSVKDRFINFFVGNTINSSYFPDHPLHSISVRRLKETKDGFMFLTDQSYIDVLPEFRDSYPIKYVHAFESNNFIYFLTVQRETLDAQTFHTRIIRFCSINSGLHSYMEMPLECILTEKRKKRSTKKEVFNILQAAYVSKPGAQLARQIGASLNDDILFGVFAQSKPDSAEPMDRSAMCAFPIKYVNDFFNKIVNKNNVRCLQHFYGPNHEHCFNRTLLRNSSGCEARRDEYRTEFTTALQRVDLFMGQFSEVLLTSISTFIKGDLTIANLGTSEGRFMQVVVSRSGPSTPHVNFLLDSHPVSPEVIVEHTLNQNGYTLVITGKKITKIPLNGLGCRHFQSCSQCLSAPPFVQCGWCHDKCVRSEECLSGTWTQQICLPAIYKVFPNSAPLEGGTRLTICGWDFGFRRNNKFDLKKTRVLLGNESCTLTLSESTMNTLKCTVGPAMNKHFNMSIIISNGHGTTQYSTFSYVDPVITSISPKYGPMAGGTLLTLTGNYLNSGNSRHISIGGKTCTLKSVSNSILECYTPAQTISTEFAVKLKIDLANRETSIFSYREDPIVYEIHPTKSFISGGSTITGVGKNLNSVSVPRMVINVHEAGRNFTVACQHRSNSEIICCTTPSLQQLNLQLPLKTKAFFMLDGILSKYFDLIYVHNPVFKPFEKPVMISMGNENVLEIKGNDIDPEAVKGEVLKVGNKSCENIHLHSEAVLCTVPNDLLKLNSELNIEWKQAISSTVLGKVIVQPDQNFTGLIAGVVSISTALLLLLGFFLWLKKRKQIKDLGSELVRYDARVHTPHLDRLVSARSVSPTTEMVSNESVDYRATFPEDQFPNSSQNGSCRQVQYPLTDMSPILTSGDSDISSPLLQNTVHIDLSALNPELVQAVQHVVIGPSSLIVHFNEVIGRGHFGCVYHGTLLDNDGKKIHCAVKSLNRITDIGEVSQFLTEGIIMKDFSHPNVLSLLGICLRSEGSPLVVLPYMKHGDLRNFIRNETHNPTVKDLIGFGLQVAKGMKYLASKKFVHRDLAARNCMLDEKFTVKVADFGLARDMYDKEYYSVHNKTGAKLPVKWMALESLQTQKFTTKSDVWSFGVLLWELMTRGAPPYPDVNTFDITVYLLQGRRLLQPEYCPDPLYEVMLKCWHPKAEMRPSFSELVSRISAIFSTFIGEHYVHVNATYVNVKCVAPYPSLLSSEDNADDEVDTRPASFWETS
T1 sequence (Q96SW2 whole entry partner): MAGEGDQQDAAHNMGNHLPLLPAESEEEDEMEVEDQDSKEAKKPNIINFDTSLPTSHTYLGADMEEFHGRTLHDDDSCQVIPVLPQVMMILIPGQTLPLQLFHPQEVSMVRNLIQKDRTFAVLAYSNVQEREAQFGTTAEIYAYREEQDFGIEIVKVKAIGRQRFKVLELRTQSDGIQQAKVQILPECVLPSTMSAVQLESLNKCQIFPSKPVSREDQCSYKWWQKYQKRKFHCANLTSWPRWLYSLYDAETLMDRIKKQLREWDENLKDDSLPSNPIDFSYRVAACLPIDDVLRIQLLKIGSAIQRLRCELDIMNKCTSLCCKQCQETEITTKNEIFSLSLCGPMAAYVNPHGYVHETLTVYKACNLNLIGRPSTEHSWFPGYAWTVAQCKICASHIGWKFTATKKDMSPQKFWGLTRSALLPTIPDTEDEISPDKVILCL

What is called half-life is how long it takes for the measured level to halve. As usually defined, the IC50 is the concentration at which inhibition is half-maximal. A word on the MRT last: it is the average time that molecules of a dose stay in the body. The term MRT inf denotes the average time that molecules of a dose stay in the body. In the case of `COc1ccc(C(=O)N2CCC3(CCN(C(=O)CN4CCC(COc5cnc(-c6cccc(Cn7nc(-c8cccc(C#N)c8)ccc7=O)c6)nc5)CC4)CC3)CC2)cc1N1CCC(=O)NC1=O`, the Activity with EBC-1 [1] is 86.14%; in the data set with EBC-1 [2] it was 33.9%; in data set [7], “Non-toxic”; in [9], 93.1%. For the same molecule, in data set [3], the half-life is greater than 2 h. The Emax in data set [4] came out at 96.1%. The IC50 with A549 is 16 µM. Also, the MRT last at 24 h in [5] amounted to 5.06 h. For the same molecule, the outcome in data set [6] was Active. Moreover, the MRT inf in [8] was 6 h.
